Measured values taken from ChEMBL document CHEMBL5113405, “Discovery, enantioselective synthesis of myrtucommulone E analogues as tyrosyl-DNA phosphodiesterase 2 inhibitors and their biological activities” (Eur J Med Chem, 2022).
pIC50: −log10 of the molar value. Calls of active or inactive are those of the source. The rule behind the calls is not given here.

Legend:
DU-145 [1] = test: Synergistic cytotoxicity against human DU-145 cells assessed as combination index incubated for 72 hrs in presence of doxorubicin by MTT-based Chou-Talalay method; format: functional
[2] = Synergistic cytotoxicity against chicken DT40 cells expressing human TDP2 assessed as combination index incubated for 72 hrs in presence of etoposide by MTT-based Chou-Talalay method; format: functional, Gallus gallus
[3] = target: T1, Tyrosyl-DNA phosphodiesterase 2 (Homo sapiens, UniProt O95551); test: Inhibition of N-terminal His-tagged human TDP2 expressed in Escherichia coli BL21 using 4-nitrophenyl phenylphosphonate as substrate incubated for 60 mins by EDTA based chromogenic assay
T1 sequence (O95551 whole entry): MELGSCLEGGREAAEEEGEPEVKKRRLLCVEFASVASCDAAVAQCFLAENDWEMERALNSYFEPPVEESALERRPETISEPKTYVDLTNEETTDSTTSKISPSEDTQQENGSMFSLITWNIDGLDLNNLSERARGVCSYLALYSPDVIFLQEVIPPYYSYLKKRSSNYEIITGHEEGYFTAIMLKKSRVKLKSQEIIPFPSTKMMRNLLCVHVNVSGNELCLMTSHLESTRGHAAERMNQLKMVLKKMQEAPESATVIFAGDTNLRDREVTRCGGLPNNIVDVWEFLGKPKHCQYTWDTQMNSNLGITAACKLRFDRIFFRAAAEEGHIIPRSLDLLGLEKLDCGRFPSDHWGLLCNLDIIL

DU-145 [4] = test: Cytotoxicity against human DU-145 cells assessed as cell growth inhibition for 72 hrs in presence of etoposide by MTT assay; format: functional
DU-145 [5] = test: Synergistic cytotoxicity against human DU-145 cells assessed as combination index incubated for 72 hrs in presence of etoposide by MTT-based Chou-Talalay method; format: functional
DU-145 [6] = test: Cytotoxicity against human DU-145 cells assessed as cell growth inhibition for 72 hrs by MTT assay; format: functional; settings: Homo sapiens, DU-145, 72 h
A549 = test: Cytotoxicity against human A549 cells assessed as cell growth inhibition for 72 hrs by MTT assay; format: functional; settings: Homo sapiens, A549, 72 h
DU-145 [7] = test: Synergistic cytotoxicity against human DU145 cells assessed as inhibition of colony formation at 5 uM incubated for 14 days in presence of etoposide by crystal violet staining based analysis; format: functional, cell-based; settings: time 14.0 day
DU-145 [8] = test: Synergistic cytotoxicity against human DU145 cells assessed as inhibition of colony formation at 5 uM incubated for 14 days in presence of doxorubicin by crystal violet staining based analysis; format: functional, cell-based; settings: time 14.0 day
[9] = Synergistic cytotoxicity against chicken DT40 cells assessed as combination index incubated for 72 hrs in presence of etoposide by MTT-based Chou-Talalay method; format: functional, Gallus gallus

`CC(C)[C@@H]1C2=C(Oc3c1c(OCC(=O)N(C)C)cc1c3[C@@H](C(C)C)C3=C(O1)C(C)(C)C(=O)C(C)(C)C3=O)C(C)(C)C(=O)C(C)(C)C2=O` showed a CI (DU-145 [1]) of 0.81, a CI [2] of 0.48 and a pIC50 [3] of 5.27. For the same compound, the “inhibition (INH)” value (DU-145 [4]) was 77%, the CI (DU-145 [5]) was 0.26 and the GI50 (DU-145 [6]) was 26 µM. For the same compound, the GI50 (A549) was 62 µM, the Activity (DU-145 [7]) was “Active” and the Activity (DU-145 [8]) was “Active”. For the same compound, the CI [9] was 0.95.
